Assay results: ChEMBL document CHEMBL4359937, “Design, synthesis and evaluation of 2-amino-imidazol-4-one derivatives as potent β-site amyloid precursor protein cleaving enzyme 1 (BACE-1) inhibitors” (Bioorg Med Chem Lett, 2019)

Legend:
[1] = biological target: T1, Beta-secretase 1 (Homo sapiens, UniProt P56817); assay: Inhibition of human BACE1 (1 to 460 residues) expressed in baculovirus infected insect cells at 10 uM using Rh-EVNLDAEFK-quencher as substrate measured after 90 mins by FRET assay relative to control
[2] = 1-Octanol/water distribution coefficient, logP of compound at 60 ug/ml shaken for 30 mins and measured by ultraviolet spectrophotometry analysis; type: physicochemical
[3] = biological target: T1, Beta-secretase 1; assay: Inhibition of human BACE1 (1 to 460 residues) expressed in baculovirus infected insect cells using Rh-EVNLDAEFK-quencher as substrate measured after 90 mins by FRET assay

T1 sequence (P56817 whole entry, the tested form may be a part): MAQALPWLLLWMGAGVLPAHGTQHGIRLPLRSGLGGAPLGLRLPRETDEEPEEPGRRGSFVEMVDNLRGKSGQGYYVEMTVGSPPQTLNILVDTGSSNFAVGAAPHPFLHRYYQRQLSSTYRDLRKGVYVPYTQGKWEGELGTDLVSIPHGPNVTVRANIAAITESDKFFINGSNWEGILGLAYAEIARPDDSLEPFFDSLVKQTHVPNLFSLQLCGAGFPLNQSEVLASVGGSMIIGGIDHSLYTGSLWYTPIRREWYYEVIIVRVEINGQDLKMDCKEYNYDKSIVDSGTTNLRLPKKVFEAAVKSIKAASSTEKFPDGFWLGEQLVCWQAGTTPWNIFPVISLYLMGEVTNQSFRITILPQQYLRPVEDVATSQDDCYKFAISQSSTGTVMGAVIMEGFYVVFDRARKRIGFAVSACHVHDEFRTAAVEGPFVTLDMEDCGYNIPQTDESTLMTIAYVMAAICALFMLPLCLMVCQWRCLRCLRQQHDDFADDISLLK

SMILES	inhibition [1]	logP at 0.5 h [2]	IC50 [3]
CN1C(=O)C(c2ccccc2)(c2ccccc2)N=C1N	62.2%	1.9	–
CN1C(=O)C(c2ccccc2)(c2cccc(-c3ccc(-c4ccccc4)cc3)c2)N=C1N (stereo unspecified)	43.9%	3.18	> 10000 nM
Cc1cccc(C)c1-c1cccc(C2(c3ccccc3)N=C(N)N(C)C2=O)c1 (stereo unspecified)	34.1%	2.42	> 10000 nM
Cc1ccc(-c2cccc(C3(c4ccccc4)N=C(N)N(C)C3=O)c2)c(C)c1 (stereo unspecified)	40.9%	2.51	> 10000 nM
CN1C(=O)C(c2ccccc2)(c2cccc(-c3ccc(OCc4ccccc4)cc3)c2)N=C1N (stereo unspecified)	37.7%	2.99	> 10000 nM
Cc1cc(C)cc(-c2cccc(C3(c4ccccc4)N=C(N)N(C)C3=O)c2)c1 (stereo unspecified)	47.2%	2.56	> 10000 nM
CN1C(=O)C(c2ccccc2)(c2cccc(Br)c2)N=C1N (stereo unspecified)	33.1%	2.04	> 10000 nM
CN1C(=O)C(c2ccccc2)(c2cccc(-c3cccc(-c4ccccc4)c3)c2)N=C1N (stereo unspecified)	20.5%	3.14	> 10000 nM
Cc1ccc(C)c(-c2cccc(C3(c4ccccc4)N=C(N)N(C)C3=O)c2)c1 (stereo unspecified)	42.1%	2.52	> 10000 nM
CCc1ccc(-c2cccc(C3(c4ccccc4)N=C(N)N(C)C3=O)c2)cc1 (stereo unspecified)	43.5%	2.56	> 10000 nM
CN1C(=O)C(c2ccccc2)(c2cccc(-c3ccc(C(C)(C)C)cc3)c2)N=C1N (stereo unspecified)	34.2%	3.1	> 10000 nM
Cc1cc(C)c(-c2cccc(C3(c4ccccc4)N=C(N)N(C)C3=O)c2)c(C)c1 (stereo unspecified)	45.7%	2.55	> 10000 nM

Continued by falling IC50 [3], values first:

inhibition [1]	logP at 0.5 h [2]	IC50 [3]	SMILES
75.5%	2.46	1570 nM	COc1ccc(-c2cccc(C3(c4ccccc4)N=C(N)N(C)C3=O)c2)c(OC)c1 (stereo unspecified)
78.6%	2.15	1110 nM	COc1cccc(-c2cccc(C3(c4ccccc4)N=C(N)N(C)C3=O)c2)c1OC (stereo unspecified)
80.7%	2.41	851 nM	COc1cc(OC)cc(-c2cccc(C3(c4ccccc4)N=C(N)N(C)C3=O)c2)c1 (stereo unspecified)
82.1%	2.02	720 nM	COc1cccc(OC)c1-c1cccc(C2(c3ccccc3)N=C(N)N(C)C2=O)c1 (stereo unspecified)
87.7%	2.34	456 nM	Cc1cc(F)ccc1-c1cccc(C2(c3ccccc3)N=C(N)N(C)C2=O)c1 (stereo unspecified)
88.3%	2.49	425 nM	Cc1ccc(-c2cccc(C3(c4ccccc4)N=C(N)N(C)C3=O)c2)cc1C (stereo unspecified)
92%	2.35	328 nM	Cc1ccc(F)cc1-c1cccc(C2(c3ccccc3)N=C(N)N(C)C2=O)c1 (stereo unspecified)
94.7%	2.72	220 nM	COc1cccc(-c2cccc(C3(c4ccccc4)N=C(N)N(C)C3=O)c2)c1F (stereo unspecified)
95%	2.54	195 nM	COc1ccc(OC)c(-c2cccc(C3(c4ccccc4)N=C(N)N(C)C3=O)c2)c1 (stereo unspecified)
96%	2.86	173 nM	COc1ccc(F)cc1-c1cccc(C2(c3ccccc3)N=C(N)N(C)C2=O)c1 (stereo unspecified)
97%	2.97	141 nM	Cc1ccc(-c2cccc(C3(c4ccccc4)N=C(N)N(C)C3=O)c2)c(F)c1 (stereo unspecified)
97.5%	2.49	119 nM	COc1ccc(-c2cccc(C3(c4ccccc4)N=C(N)N(C)C3=O)c2)cc1OC (stereo unspecified)
